Results: patent publication US20060211751A1, “Zolmitriptan crystal forms” (priority 2004, published 2006)

What was measured:
Type in all cases: physicochemical
[1] = Transformation by pressing (crystal form before and after pressing); details: for Crystal Form after pressing: 100 mg pressed with approximately 1300 psi during 2 minutes
[2] = Transformation of zolmitriptan crystal forms by heating in a conventional oven, form determined by XRD; details: for Crystal form after heating: about 1.5 to 2 hours, conventional oven, XRD
Protocol: Zolmitriptan (0.5 g) crystalline forms were heated in a conventional oven for a period of about 1.5 to 2 hours at different temperatures. The crystal form of the samples was determined by XRD before and after heating.

[3] = Transformation by slurry in other solvents (n-hexane, toluene, water) and drying, form determined by XRD
Text: Similarly to example 6 Zolmitriptan samples were slurried from other solvents or solvent systems after dissolution and precipitation from a specific solvent.

[4] = Polymorphic stability when maintained at room temperature
[5] = Toluene, dried 63 °C under reduced pressure
[6] = Water, dried 63 °C under reduced pressure
[7] = immersed in 10 v/w Toluene, filtered, sucked ½ hour on Buchner
[8] = immersed in 10 v/w Water, filtered, sucked ½ hour on Buchner
[9] = immersed in 10 v/w n-Hexane, filtered, sucked ½ hour on Buchner
[10] = n-Hexane, dried 63 °C under reduced pressure

| SMILES | Crystal Form after pressing [1] | transformation to other crystal form on pressing [1] | Crystal form after heating ([2]; heating temp. 90 °C) | Crystal form after heating ([2]; heating temp. 60 °C) | stability upon heating (conversion to Form A) ([2]; heated at about 60 °C to about 110 °C for about 2 hours) | Crystal form after heating ([2]; heating temp. 100 °C) | Crystal form after heating ([2]; heating temp. 110 °C) | XRD sample (form after treatment) [3, 5] | XRD sample (form after treatment) [3, 6] | XRD sample (form after treatment) [3, 7] | XRD sample (form after treatment) [3, 8] | XRD sample (form after treatment) [3, 9] | XRD sample (form after treatment) [3, 10] | polymorphic stability (conversion to Form A) [4] |
| --- | --- | --- | --- | --- | --- | --- | --- | --- | --- | --- | --- | --- | --- | --- |
| CN(C)CCc1c[nH]c2ccc(C[C@H]3COC(=O)N3)cc12 [Form L] | Form L | not transform to other crystal form | A + |  |  |  |  |  |  |  |  |  |  |  |
| CN(C)CCc1c[nH]c2ccc(C[C@H]3COC(=O)N3)cc12 [Form Q] |  |  |  | A + |  |  |  |  |  |  |  |  |  |  |
| CN(C)CCc1c[nH]c2ccc(C[C@H]3COC(=O)N3)cc12 [Amorphous form] | Amorphous Form | not transform to other crystal form |  | Amorph | does not convert to Form A | Amorph | Amorph |  |  |  |  |  |  |  |
| CN(C)CCc1c[nH]c2ccc(C[C@H]3COC(=O)N3)cc12 [Form N] | Form N | not transform to other crystal form |  | N + A |  |  |  | Form A | Form A | Form K | Form A | Form D | Form A |  |
| CN(C)CCc1c[nH]c2ccc(C[C@H]3COC(=O)N3)cc12 [Form G] | Form G | not transform to other crystal form |  |  |  |  |  | Form A + ˜10% K | Form A | Form K | Form A | Form D | Essent.Am D | do not convert to Form A |
